Laboratory results: patent US8471005B2 (Cephalon, Inc., priority 2008, dated 2013)

Assays:
[1] = molecular target: T1, ALK (Homo sapiens, UniProt Q9UM73); assay: ALK Kinase Assay (ELISA/TRF, PLC-γ substrate); type: biochemical; conditions: ALK kinase inhibition, 1 μM ATP; read-out: ALK Potency
T1 construct: host or cells: baculovirus expression system
In short: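 IC50 values derive from percent inhibition plotted against log10 compound concentration and fitted to a variable-slope sigmoidal equation. The underlying reaction used 30 ng/ml ALK acting on immobilized PLC-γ (10 μg/mL in TBS) at 37° C for 15 minutes, read with Eu-N1 PT66 antibody.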

[2] = molecular target: T2, JAK2 (Homo sapiens, UniProt O60674); assay: Recombinant Human JAK2 Kinase Assay (TRF); type: biochemical; conditions: JAK2 kinase inhibition, 0.2 μM ATP; read-out: JAK2 Potency
T2 construct: host or cells: baculovirus expression system
In short: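 Kinase activity of baculovirus-expressed JAK2 is followed on a surface-immobilised biotinylated peptide, with the reaction run for 20 min at room temperature in buffer containing 0.2 μM ATP and manganese. Phosphorylation is read with Eu-N1 PY100 antibody.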

T2 sequence (O60674 whole entry): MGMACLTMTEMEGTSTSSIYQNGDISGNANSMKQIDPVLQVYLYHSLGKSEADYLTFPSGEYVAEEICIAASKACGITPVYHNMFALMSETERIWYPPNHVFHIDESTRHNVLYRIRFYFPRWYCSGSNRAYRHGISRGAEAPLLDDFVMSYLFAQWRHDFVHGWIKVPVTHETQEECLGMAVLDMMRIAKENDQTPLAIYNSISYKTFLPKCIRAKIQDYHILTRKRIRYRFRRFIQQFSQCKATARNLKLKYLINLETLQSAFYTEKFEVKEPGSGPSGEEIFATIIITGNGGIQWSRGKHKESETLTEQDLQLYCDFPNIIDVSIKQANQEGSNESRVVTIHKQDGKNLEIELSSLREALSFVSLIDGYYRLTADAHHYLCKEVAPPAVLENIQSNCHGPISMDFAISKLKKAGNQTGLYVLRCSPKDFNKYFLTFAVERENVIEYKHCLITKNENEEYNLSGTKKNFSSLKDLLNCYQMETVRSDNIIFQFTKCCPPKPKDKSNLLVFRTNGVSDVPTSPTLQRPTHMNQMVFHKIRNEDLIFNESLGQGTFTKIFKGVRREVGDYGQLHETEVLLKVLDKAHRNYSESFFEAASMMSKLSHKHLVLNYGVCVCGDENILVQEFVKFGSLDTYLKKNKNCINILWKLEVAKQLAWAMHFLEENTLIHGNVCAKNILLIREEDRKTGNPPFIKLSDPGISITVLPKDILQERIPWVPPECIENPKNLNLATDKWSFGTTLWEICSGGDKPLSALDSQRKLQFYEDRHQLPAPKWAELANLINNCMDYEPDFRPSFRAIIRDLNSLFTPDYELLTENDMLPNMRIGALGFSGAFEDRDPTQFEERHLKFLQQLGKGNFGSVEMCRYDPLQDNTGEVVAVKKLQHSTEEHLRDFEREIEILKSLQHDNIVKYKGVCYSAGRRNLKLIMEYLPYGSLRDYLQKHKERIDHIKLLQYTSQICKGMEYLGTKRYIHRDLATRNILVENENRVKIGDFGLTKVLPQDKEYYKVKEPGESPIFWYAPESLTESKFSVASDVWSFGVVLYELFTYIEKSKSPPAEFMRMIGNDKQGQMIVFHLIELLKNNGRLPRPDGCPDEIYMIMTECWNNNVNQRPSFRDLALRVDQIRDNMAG
T1 sequence (Q9UM73 19-1620): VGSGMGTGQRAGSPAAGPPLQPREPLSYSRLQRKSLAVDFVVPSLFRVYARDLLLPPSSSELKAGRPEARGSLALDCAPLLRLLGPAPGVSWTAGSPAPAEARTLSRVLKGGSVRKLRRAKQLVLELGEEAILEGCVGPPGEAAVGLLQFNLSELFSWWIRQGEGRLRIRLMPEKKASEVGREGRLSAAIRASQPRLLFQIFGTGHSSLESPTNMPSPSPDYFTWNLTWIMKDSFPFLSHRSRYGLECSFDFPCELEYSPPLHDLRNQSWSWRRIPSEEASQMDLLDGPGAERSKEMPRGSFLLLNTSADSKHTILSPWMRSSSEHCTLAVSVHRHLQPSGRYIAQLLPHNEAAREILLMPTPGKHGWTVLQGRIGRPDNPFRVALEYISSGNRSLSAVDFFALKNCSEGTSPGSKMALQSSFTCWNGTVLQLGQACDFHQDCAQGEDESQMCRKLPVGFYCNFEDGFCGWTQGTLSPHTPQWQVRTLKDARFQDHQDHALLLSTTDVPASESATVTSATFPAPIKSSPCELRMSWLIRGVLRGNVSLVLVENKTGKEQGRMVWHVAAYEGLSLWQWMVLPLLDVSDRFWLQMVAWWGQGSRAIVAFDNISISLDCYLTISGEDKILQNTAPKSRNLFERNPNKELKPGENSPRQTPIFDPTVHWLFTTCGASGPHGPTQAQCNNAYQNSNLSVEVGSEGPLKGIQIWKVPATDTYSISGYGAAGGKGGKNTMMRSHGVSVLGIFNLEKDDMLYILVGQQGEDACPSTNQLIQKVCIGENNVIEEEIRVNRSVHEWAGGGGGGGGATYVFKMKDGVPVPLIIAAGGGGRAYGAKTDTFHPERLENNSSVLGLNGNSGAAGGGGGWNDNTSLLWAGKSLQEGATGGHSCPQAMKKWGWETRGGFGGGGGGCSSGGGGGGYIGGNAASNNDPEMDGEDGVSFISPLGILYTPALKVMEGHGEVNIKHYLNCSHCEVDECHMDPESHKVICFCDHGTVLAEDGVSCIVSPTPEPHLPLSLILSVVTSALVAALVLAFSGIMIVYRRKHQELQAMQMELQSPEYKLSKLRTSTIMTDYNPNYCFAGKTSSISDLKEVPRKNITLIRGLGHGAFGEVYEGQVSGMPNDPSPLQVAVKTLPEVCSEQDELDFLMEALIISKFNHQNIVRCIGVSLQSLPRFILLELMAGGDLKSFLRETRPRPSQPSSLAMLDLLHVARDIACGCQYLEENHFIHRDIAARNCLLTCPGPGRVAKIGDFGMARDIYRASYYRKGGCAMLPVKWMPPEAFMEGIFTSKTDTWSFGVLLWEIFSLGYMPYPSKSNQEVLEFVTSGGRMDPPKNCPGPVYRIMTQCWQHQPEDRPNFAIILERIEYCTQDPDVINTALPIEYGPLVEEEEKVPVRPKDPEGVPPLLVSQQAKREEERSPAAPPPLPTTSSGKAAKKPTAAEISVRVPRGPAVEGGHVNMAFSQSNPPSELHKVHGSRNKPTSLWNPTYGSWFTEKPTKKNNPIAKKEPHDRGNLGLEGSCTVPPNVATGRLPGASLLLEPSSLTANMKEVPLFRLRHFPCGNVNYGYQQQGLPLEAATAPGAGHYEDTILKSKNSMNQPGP

Structure (SMILES): CS(=O)(=O)c1ccc(-c2ccc3cnc(Nc4ccc(C5CCN(CCO)CC5)cc4)nn23)cc1 [Example 679, 2-(4-{4-[7-(4-Methanesulfonyl-phenyl)-pyrrolo[2,1-f][1,2,4]triazin-2-ylamino]-phenyl}-piperidin-1-yl)-ethanol]
- IC50 [1]: < 100 nM
- IC50 [2]: < 100 nM

Structure (SMILES): CC(C)(C)NS(=O)(=O)c1cccc(-c2ccc3cnc(Nc4ccc5c(c4)C(N)C(O)C5)nn23)c1 (centres unmarked) [Example 680, 3-[2-(3-Amino-2-hydroxy-indan-5-ylamino)-pyrrolo[2,1-f][1,2,4]triazin-7-yl]-N-tert-butyl-benzenesulfonamide]
- IC50 [1]: 100 to 1000 nM
- IC50 [2]: < 100 nM

Structure (SMILES): COc1ccccc1-c1ccc2cnc(Nc3ccc4c(c3)C(N)C(O)C4)nn12 (centres unmarked) [Example 681, 1-Amino-6-[7-(2-methoxy-phenyl)-pyrrolo[2,1-f][1,2,4]triazin-2-ylamino]-indan-2-ol]
- IC50 [1]: 100 to 1000 nM
- IC50 [2]: < 100 nM

Structure (SMILES): COc1ccc(-c2ccc3cnc(Nc4ccc(C5CCN(CC(N)=O)CC5)cc4)nn23)c(OC)n1 [Example 682, 2-(4-{4-[7-(2,6-Dimethoxy-pyridin-3-yl)-pyrrolo[2,1-f][1,2,4]triazin-2-ylamino]-phenyl}-piperidin-1-yl)-acetamide]
- IC50 [1]: < 100 nM
- IC50 [2]: < 100 nM

Structure (SMILES): COc1cc(C2CCNCC2)ccc1Nc1ncc2ccc(-c3cccc(S(=O)(=O)NC(C)(C)C)c3)n2n1 [Example 691, N-tert-Butyl-3-[2-(2-methoxy-4-piperidin-4-yl-phenylamino)-pyrrolo[2,1-f][1,2,4]triazin-7-yl]-benzenesulfonamide]
- IC50 [1]: < 100 nM
- IC50 [2]: 100 to 1000 nM

Structure (SMILES): COc1cc(C2CCN(C)CC2)ccc1Nc1ncc2ccc(-c3cccc(S(=O)(=O)NC(C)(C)C)c3)n2n1 [Example 692, N-tert-Butyl-3-{2-[2-methoxy-4-(1-methyl-piperidin-4-yl)-phenylamino]-pyrrolo[2,1-f][1,2,4]triazin-7-yl}-benzenesulfonamide]
- IC50 [1]: < 100 nM
- IC50 [2]: < 100 nM

Structure (SMILES): COc1cc(C2CCN(CC(N)=O)CC2)ccc1Nc1ncc2ccc(-c3cccc(S(=O)(=O)NC(C)(C)C)c3)n2n1 [Example 693, 2-(4-{4-[7-(3-tert-Butylsulfamoylphenyl)pyrrolo[2,1-f][1,2,4]triazin-2-ylamino]-3-methoxyphenyl)piperidin-1-yl)-acetamide]
- IC50 [1]: < 100 nM
- IC50 [2]: 100 to 1000 nM

Structure (SMILES): COc1cc(C2CCN(CCO)CC2)ccc1Nc1ncc2ccc(-c3cccc(S(=O)(=O)NC(C)(C)C)c3)n2n1 [Example 694, N-tert-Butyl-3-(2-{4-[1-(2-hydroxy-ethyl)-piperidin-4-yl]-2-methoxy-phenylamino}-pyrrolo[2,1-f][1,2,4]triazin-7-yl)-benzenesulfonamide]
- IC50 [1]: < 100 nM
- IC50 [2]: 100 to 1000 nM

Structure (SMILES): COc1cc(C2CCN(C[C@H](O)CO)CC2)ccc1Nc1ncc2ccc(-c3cccc(S(=O)(=O)NC(C)(C)C)c3)n2n1 [Example 695, N-tert-Butyl-3-(2-{4-[1-((S)-2,3-dihydroxy-propyl)-piperidin-4-yl]-2-methoxy-phenylamino}-pyrrolo[2,1-f][1,2,4]triazin-7-yl)-benzenesulfonamide]
- IC50 [1]: < 100 nM
- IC50 [2]: 100 to 1000 nM

Structure (SMILES): COc1cc(C2CCN(C)CC2)ccc1Nc1ncc2ccc(-c3cccc(S(=O)(=O)NC4CC4)c3)n2n1 [Example 696]
- IC50 [1]: < 100 nM
- IC50 [2]: 100 to 1000 nM

Structure (SMILES): COc1cc(C2CCN(CC(N)=O)CC2)ccc1Nc1ncc2ccc(-c3cccc(S(=O)(=O)NC4CC4)c3)n2n1 [Example 697, 2-(4-{4-[7-(3-Cyclopropylsulfamoyl-phenyl)-pyrrolo[2,1-f][1,2,4]triazin-2-ylamino]-3-methoxy-phenyl}-piperidin-1-yl)-acetamide]
- IC50 [1]: < 100 nM
- IC50 [2]: 100 to 1000 nM

Structure (SMILES): COc1cc(C2CCN(CCO)CC2)ccc1Nc1ncc2ccc(-c3cccc(S(=O)(=O)NC4CC4)c3)n2n1 [Example 698]
- IC50 [1]: < 100 nM
- IC50 [2]: 100 to 1000 nM

Structure (SMILES): COc1cc2c(cc1Nc1ncc3ccc(-c4cccc(S(=O)(=O)NC(C)(C)C)c4)n3n1)CCN(CCO)CC2 [Example 699]
- IC50 [1]: < 100 nM
- IC50 [2]: 100 to 1000 nM

Structure (SMILES): COc1cc2c(cc1Nc1ncc3ccc(-c4cccc(S(=O)(=O)NC(C)(C)C)c4)n3n1)CCN(C[C@@H](C)O)CC2 [Example 700]
- IC50 [1]: < 100 nM
- IC50 [2]: 100 to 1000 nM

Structure (SMILES): COc1cc2c(cc1Nc1ncc3ccc(-c4cccc(S(=O)(=O)NC(C)(C)C)c4)n3n1)CCN(C[C@H](C)O)CC2 [Example 701]
- IC50 [1]: < 100 nM
- IC50 [2]: 100 to 1000 nM

Structure (SMILES): COc1cc(C2CCN(CCO)CC2)ccc1Nc1ncc2ccc(-c3cccc4c3OCC4)n2n1 [Example 702, 2-(4-{4-[7-(2,3-Dihydro-benzofuran-7-yl)-pyrrolo[2,1-f][1,2,4]triazin-2-ylamino]-3-methoxy-phenyl}-piperidin-1-yl)-ethanol]
- IC50 [1]: < 100 nM
- IC50 [2]: 100 to 1000 nM

Structure (SMILES): COc1cc(C2CCN(CC(N)=O)CC2)ccc1Nc1ncc2ccc(-c3cccc4c3OCC4)n2n1 [Example 703, 2-(4-{4-[7-(2,3-Dihydro-benzofuran-7-yl)-pyrrolo[2,1-f][1,2,4]triazin-2-ylamino]-3-methoxy-phenyl}-piperidin-1-yl)-acetamide]
- IC50 [1]: < 100 nM
- IC50 [2]: 100 to 1000 nM

Structure (SMILES): COc1cc2c(cc1Nc1ncc3ccc(-c4cccc5c4OCC5)n3n1)CCN(CCO)CC2 [Example 704, 2-{7-[7-(2,3-Dihydro-benzofuran-7-yl)-pyrrolo[2,1-f][1,2,4]triazin-2-ylamino]-8-methoxy-1,2,4,5-tetrahydro-3-benzazepin-3-yl}-ethanol]
- IC50 [1]: < 100 nM
- IC50 [2]: < 100 nM

Structure (SMILES): COc1cc(C2CCN(C)CC2)ccc1Nc1ncc2ccc(-c3cccc4c3OCC4)n2n1 [Example 705, [7-(2,3-Dihydro-benzofuran-7-yl)-pyrrolo[2,1-f][1,2,4]triazin-2-yl]-[2-methoxy-4-(1-methyl-piperidin-4-yl)-phenyl]-amine]
- IC50 [1]: < 100 nM
- IC50 [2]: 100 to 1000 nM

Structure (SMILES): NC(=O)CN1CCC(c2ccc(Nc3ncc4ccc(-c5cccc6c5OCC6)n4n3)cc2)CC1 [Example 706, 2-(4-{4-[7-(2,3-Dihydro-benzofuran-7-yl)-pyrrolo[2,1-f][1,2,4]triazin-2-ylamino]-phenyl}-piperidin-1-yl)-acetamide]
- IC50 [1]: < 100 nM
- IC50 [2]: < 100 nM

Structure (SMILES): COc1cc2c(cc1Nc1ncc3ccc(-c4cccc5c4OCC5)n3n1)CCCC(N1CCN(CCO)CC1)C2 (centres unmarked) [Example 707, 2-(4-{2-[7-(2,3-Dihydro-benzofuran-7-yl)-pyrrolo[2,1-f][1,2,4]triazin-2-ylamino]-3-methoxy-6,7,8,9-tetrahydro-5H-benzocyclohepten-6-yl}-piperazin-1-yl)-ethanol]
- IC50 [1]: < 100 nM
- IC50 [2]: 100 to 1000 nM

Structure (SMILES): COc1cc2c(cc1Nc1ncc3ccc(-c4cccc5c4OCC5)n3n1)CCN(CC(N)=O)CC2 [Example 708, 2-{7-[7-(2,3-Dihydro-benzofuran-7-yl)-pyrrolo[2,1-f][1,2,4]triazin-2-ylamino]-8-methoxy-1,2,4,5-tetrahydro-3-benzazepin-3-yl}-acetamide]
- IC50 [1]: < 100 nM
- IC50 [2]: 100 to 1000 nM

Structure (SMILES): COc1cc2c(cc1Nc1ncc3ccc(-c4cccc5c4OCC5)n3n1)CCNCC2 [Example 709, [7-(2,3-Dihydro-benzofuran-7-yl)-pyrrolo[2,1-f][1,2,4]triazin-2-yl]-(8-methoxy-2,3,4,5-tetrahydro-1H-3-benzazepin-7-yl)-amine]
- IC50 [1]: < 100 nM
- IC50 [2]: < 100 nM

Structure (SMILES): c1cc2c(c(-c3ccc4cnc(Nc5cnc6c(N7CCNCC7)cccc6c5)nn34)c1)OCC2 [Example 710, [7-(2,3-Dihydro-benzofuran-7-yl)-pyrrolo[2,1-f][1,2,4]triazin-2-yl]-(8-piperazin-1-yl-quinolin-3-yl)-amine]
- IC50 [1]: > 10000 nM
- IC50 [2]: 1000 to 10000 nM

Structure (SMILES): COc1cc(C2CCNCC2)ccc1Nc1ncc2ccc(-c3cccc4c3NC(=O)C4)n2n1 [Example 714, 7-[2-(2-Methoxy-4-piperidin-4-ylphenylamino)pyrrolo[2,1-f][1,2,4]triazin-7-yl]-1,3-dihydro-indol-2-one]
- IC50 [1]: 1000 to 10000 nM
- IC50 [2]: 1000 to 10000 nM

Structure (SMILES): c1cc2c(c(-c3ccc4cnc(Nc5cnn(C6CCNCC6)c5)nn34)c1)OCC2 [Example 715, [7-(2,3-Dihydrobenzofuran-7-yl)pyrrolo[2,1-f][1,2,4]triazin-2-yl]-(1-piperidin-4-yl-1H-pyrazol-4-yl)amine]
- IC50 [1]: 100 to 1000 nM
- IC50 [2]: < 100 nM

Structure (SMILES): COc1ccccc1-c1ccc2cnc(Nc3cnn(C4CCNCC4)c3)nn12 [Example 716, 4-{4-[7-(2-Methoxy-phenyl)-pyrrolo[2,1-f][1,2,4]triazin-2-ylamino]-pyrazol-1-yl}-piperidine]
- IC50 [1]: < 100 nM
- IC50 [2]: < 100 nM

Structure (SMILES): CN(c1ccccc1-c1ccc2cnc(Nc3cnn(C4CCNCC4)c3)nn12)S(C)(=O)=O [Example 717, N-Methyl-N-{2-[2-(1-piperidin-4-yl-1H-pyrazol-4-ylamino)-pyrrolo[2,1-f][1,2,4]triazin-7-yl]-phenyl}-methanesulfonamide]
- IC50 [1]: 100 to 1000 nM
- IC50 [2]: < 100 nM

Structure (SMILES): COc1cc(C2CCNCC2O)ccc1Nc1ncc2ccc(-c3cccc4c3OCC4)n2n1 (centres unmarked) [Example 718, 4-{4-[7-(2,3-Dihydro-benzofuran-7-yl)-pyrrolo[2,1-f][1,2,4]triazin-2-ylamino]-3-methoxy-phenyl}-piperidin-3-ol]
- IC50 [1]: < 100 nM
- IC50 [2]: < 100 nM

Structure (SMILES): COc1cc(C2CCNCC2)ccc1Nc1ncc2ccc(N3CC(c4ccccc4)CC3=O)n2n1 (centres unmarked) [Example 719, 1-[2-(2-Methoxy-4-piperidin-4-yl-phenylamino)-pyrrolo[2,1-f][1,2,4]triazin-7-yl]-4-phenyl-pyrrolidin-2-one]
- IC50 [1]: 100 to 1000 nM
- IC50 [2]: 1000 to 10000 nM

Structure (SMILES): COc1ccccc1-c1ccn2nc(NCc3cccc(N(C)C)c3)ncc12 [Example 721, (3-Dimethylamino-benzyl)-[5-(2-methoxy-phenyl)-pyrrolo[2,1-f][1,2,4]triazin-2-yl]-amine]
- IC50 [1]: > 10000 nM
- IC50 [2]: 1000 to 10000 nM
